Where two headings read alike, the source gives them in different places.
Experiments:
kOR (OPRK1) = kOR (OPRK1) (Homo sapiens (Human), UniProt P41145); test: KOR β-Arrestin antagonist assay (Tango OPRK1-bla U2OS cells); type: cell-based
Description: KOR β-Arrestin Agonist and Antagonist assays were preformed using the Tango™ OPRK1-bla U2OS cells from Invitrogen and purchased from ThermoFisher, catalog number K1576.

human dOR = human dOR (Homo sapiens (Human), UniProt P41143); test: cell-based; conditions: dOR cAMP Agonist Assay EC50, CHO Tag-lite human dOR stable cell line; forskolin
human dOR, sequence (P41143 whole entry): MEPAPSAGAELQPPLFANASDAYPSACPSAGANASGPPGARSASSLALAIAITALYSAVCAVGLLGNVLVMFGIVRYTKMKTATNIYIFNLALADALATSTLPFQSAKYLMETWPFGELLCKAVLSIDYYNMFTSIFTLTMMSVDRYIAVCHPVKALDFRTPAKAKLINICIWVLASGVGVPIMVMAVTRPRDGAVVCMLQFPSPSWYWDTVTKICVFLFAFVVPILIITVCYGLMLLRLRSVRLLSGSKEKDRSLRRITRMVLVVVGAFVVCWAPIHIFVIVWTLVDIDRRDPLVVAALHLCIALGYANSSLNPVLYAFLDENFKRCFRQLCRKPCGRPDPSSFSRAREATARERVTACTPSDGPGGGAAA

human mOR = human mOR (Homo sapiens (Human), UniProt P35372); test: cell-based
human mOR, sequence (P35372 whole entry): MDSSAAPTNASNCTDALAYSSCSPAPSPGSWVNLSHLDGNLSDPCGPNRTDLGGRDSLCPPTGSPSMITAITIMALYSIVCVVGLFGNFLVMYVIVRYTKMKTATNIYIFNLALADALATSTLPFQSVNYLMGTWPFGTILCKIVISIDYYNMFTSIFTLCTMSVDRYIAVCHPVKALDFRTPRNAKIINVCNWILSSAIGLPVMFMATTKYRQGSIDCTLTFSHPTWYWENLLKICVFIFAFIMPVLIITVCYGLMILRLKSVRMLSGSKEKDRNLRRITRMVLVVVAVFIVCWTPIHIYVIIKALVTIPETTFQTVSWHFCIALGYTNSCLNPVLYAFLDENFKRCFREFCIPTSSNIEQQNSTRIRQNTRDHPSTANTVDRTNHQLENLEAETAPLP

[1] = CHO Tag-lite human mOR stable cell line, forskolin 4 μM and DAMGO at EC90, read-out: mOR cAMP Antagonist Assay IC50

kOR (OPRK1), sequence (P41145 whole entry): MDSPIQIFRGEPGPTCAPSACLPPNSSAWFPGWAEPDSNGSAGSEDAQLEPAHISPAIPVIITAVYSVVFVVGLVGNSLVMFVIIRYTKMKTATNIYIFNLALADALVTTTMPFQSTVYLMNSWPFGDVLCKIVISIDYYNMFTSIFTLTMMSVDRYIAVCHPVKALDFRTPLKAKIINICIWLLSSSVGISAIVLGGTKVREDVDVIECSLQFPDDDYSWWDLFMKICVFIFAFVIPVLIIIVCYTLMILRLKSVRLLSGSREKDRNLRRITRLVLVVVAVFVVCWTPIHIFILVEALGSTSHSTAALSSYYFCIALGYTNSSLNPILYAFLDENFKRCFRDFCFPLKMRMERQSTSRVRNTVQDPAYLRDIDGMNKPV

| Compound | IC50 (kOR (OPRK1)) | EC50 (human dOR) | IC50 (human mOR) | IC50 (human mOR; [1]) |
| --- | --- | --- | --- | --- |
| CN(C)[C@H](CNC(=O)C[C@H](CC1CCC1)c1ccccc1)Cc1ccc(C(N)=O)cc1 [Compound 90, 4-[(2S)-3-[(3S)-4-cyclobutyl-3-phenylbutanamido]-2-(dimethylamino)propyl]benzamide] | < 300 nM | < 300 nM | < 300 nM | – |
| Cc1ccc([C@@H](CC(=O)NC[C@H](Cc2ccc(C(N)=O)c(F)c2Cl)N(C)C)C2(C(F)(F)F)CC2)cn1 [Compound 20, 3-chloro-4-((S)-2-(dimethylamino)-3-((R)-3-(6-methylpyridin-3-yl)-3-(1-(trifluoromethyl)cyclopropyl)propanamido)propyl)-2-fluorobenzamide] | < 300 nM | 300 to 3000 nM | – | < 300 nM |
| CN(C)[C@H](CNC(=O)C[C@H](c1ccccc1)C1CC1)Cc1ccc2[nH]ncc2c1 [Compound 227, (3S)-3-cyclopropyl-N-[(2S)-2-(dimethylamino)-3-(1H-indazol-5-yl)propyl]-3-phenylpropanamide] | 300 to 3000 nM | 300 to 3000 nM | – | < 300 nM |
| Cc1ncc([C@@H](CC(=O)NC[C@H](Cc2ccc(C(N)=O)c(F)c2)N(C)C)C2(C(F)(F)F)CC2)cn1 [Compound 68, 4-((S)-2-(dimethylamino)-3-((R)-3-(2-methylpyrimidin-5-yl)-3-(1-(trifluoromethyl)cyclopropyl)propanamido)propyl)-2-fluorobenzamide] | < 300 nM | > 3000 nM | < 300 nM | – |
| Cc1cc(C(N)=O)cc(C)c1C[C@@H](CNC(=O)C[C@H](c1ccccc1)C1(C(F)(F)F)CC1)N(C)C [Compound 8, 4-((S)-2-(dimethylamino)-3-((R)-3-phenyl-3-(1-(trifluoromethyl)cyclopropyl)propanamido)propyl)-3,5-dimethylbenzamide] | < 300 nM | > 3000 nM | – | > 3000 nM |
| CN(C)[C@H](CNC(=O)C[C@@H](c1ccccc1)C1(C(F)(F)F)CC1)Cc1ccc(C(N)=O)cc1 [Compound 88, 4-[(2S)-2-(dimethylamino)-3-[(3S)-3-phenyl-3-[1-(trifluoromethyl)cyclopropyl]propanamido]propyl]benzamide] | < 300 nM | < 300 nM | < 300 nM | – |
| CN(C)[C@H](CNC(=O)C[C@H](c1ccccc1)C1CC1)Cc1ccc(O)cc1 [Compound 319, (S)-3-cyclopropyl-N-((S)-2-(dimethylamino)-3-(4-hydroxyphenyl)propyl)-3-phenylpropanamide] | < 300 nM | < 300 nM | – | > 3000 nM |
| CN(C)[C@H](CNC(=O)C[C@@H](c1ccccc1)C1CC1)Cc1ccc2[nH]ncc2c1 [Compound 226, (3R)-3-cyclopropyl-N-[(2S)-2-(dimethylamino)-3-(1H-indazol-5-yl)propyl]-3-phenylpropanamide] | < 300 nM | 300 to 3000 nM | – | < 300 nM |
| Cc1cc(O)cc(C)c1C[C@@H](CNC(=O)C[C@H](c1ccccc1)C1CC1)N(C)C [Compound 251, (S)-3-cyclopropyl-N-((S)-2-(dimethylamino)-3-(4-hydroxy-2,6-dimethylphenyl)propyl)-3-phenylpropanamide] | < 300 nM | > 3000 nM | – | < 300 nM |
| Cc1cc(C(N)=O)cc(C)c1C[C@@H](CNC(=O)C[C@@H](CC(C)C)c1ccccc1)N(C)C [Compound 12, 4-[(2S)-2-(dimethylamino)-3-[(3R)-5-methyl-3-phenylhexanamido]propyl]-3,5-dimethylbenzamide] | < 300 nM | > 3000 nM | < 300 nM | – |
| CN(C)[C@H](CNC(=O)C[C@@H](c1ccccc1)C1CC1)Cc1ccc(C(N)=O)cc1 [Compound 97, 4-((S)-3-((R)-3-cyclopropyl-3-phenylpropanamido)-2-(dimethylamino)propyl)benzamide] | < 300 nM | < 300 nM | < 300 nM | – |
| CN(C)[C@H](CNC(=O)C[C@H](c1ccccc1)C1(C(F)(F)F)CC1)Cc1ccc(C(N)=O)c(F)c1 [Compound 77, 4-((S)-2-(dimethylamino)-3-((R)-3-phenyl-3-(1-(trifluoromethyl)cyclopropyl)propanamido)propyl)-2-fluorobenzamide] | < 300 nM | > 3000 nM | < 300 nM | – |
| CC(C)C[C@H](CC(=O)NC[C@H](Cc1ccc(C(N)=O)cc1)N(C)C)c1ccccc1 [Compound 96, 4-((S)-2-(dimethylamino)-3-((R)-5-methyl-3-phenylhexanamido)propyl)benzamide] | < 300 nM | < 300 nM | < 300 nM | – |
| CNC(=O)c1ccc(C[C@@H](CNC(=O)C[C@H](c2ccc(Cl)cc2)C2(C(F)(F)F)CC2)N(C)C)c(C)c1 [Compound 142, 4-((S)-3-((R)-3-(4-chlorophenyl)-3-(1-(trifluoromethyl)cyclopropyl)propanamido)-2-(dimethylamino)propyl)-N,3-dimethylbenzamide] | < 300 nM | > 3000 nM | < 300 nM | – |
| Cc1cc(C(N)=O)cc(C)c1C[C@@H](CNC(=O)C[C@@H](c1ccccc1)C(C)C)N(C)C [Compound 10, 4-((S)-2-(dimethylamino)-3-((R)-4-methyl-3-phenylpentanamido)propyl)-3,5-dimethylbenzamide] | < 300 nM | > 3000 nM | < 300 nM | – |
| Cc1ncc([C@@H](CC(=O)NC[C@H](Cc2ccc(C(N)=O)c(F)c2Cl)N(C)C)C2(C(F)(F)F)CC2)cn1 [Compound 21, 3-chloro-4-[(2S)-2-(dimethylamino)-3-[(3R)-3-(2-methylpyrimidin-5-yl)-3-[1-(trifluoromethyl)cyclopropyl]propanamido]propyl]-2-fluorobenzamide] | < 300 nM | 300 to 3000 nM | < 300 nM | – |
| Cc1cc(C(N)=O)cc(C)c1C[C@@H](CNC(=O)C[C@@H](c1ccccc1)C1(C(F)(F)F)CC1)N(C)C [Compound 7, 4-((S)-2-(dimethylamino)-3-((S)-3-phenyl-3-(1-(trifluoromethyl)cyclopropyl)propanamido)propyl)-3,5-dimethylbenzamide] | < 300 nM | < 300 nM | – | > 3000 nM |
| CC(C)C[C@@H](CC(=O)NC[C@H](Cc1ccc(C(N)=O)cc1)N(C)C)c1ccccc1 [Compound 91, 4-[(2S)-2-(dimethylamino)-3-[(3S)-5-methyl-3-phenylhexanamido]propyl]benzamide] | < 300 nM | < 300 nM | < 300 nM | – |
| CN(C)[C@H](CNC(=O)CC(c1ncc(Cl)cn1)C1(C(F)(F)F)CC1)Cc1ccc(C(N)=O)c(F)c1 (stereo partly drawn) [Compound 73, 4-[(2S)-3-[3-(5-chloropyrimidin-2-yl)-3-[1-(trifluoromethyl)cyclopropyl]propanamido]-2-(dimethylamino)propyl]-2-fluorobenzamide] | < 300 nM | – | < 300 nM | – |
| CN(C)[C@H](CNC(=O)C[C@H](c1cccnc1)C1(C(F)(F)F)CC1)Cc1ccc(O)cc1C(F)(F)F [Compound 255, (R)-N-((S)-2-(dimethylamino)-3-(4-hydroxy-2-(trifluoromethyl)phenyl)propyl)-3-(pyridin-3-yl)-3-(1-(trifluoromethyl)cyclopropyl) propanamide] | > 3000 nM | – | < 300 nM | – |
| Cc1cc(O)cc(C)c1C[C@@H](CNC(=O)CC(c1cccnc1)C1(C(F)(F)F)CC1)N(C)C (stereo partly drawn) [Compound 316, N-((S)-2-(dimethylamino)-3-(4-hydroxy-2,6-dimethylphenyl)propyl)-3-(pyridin-3-yl)-3-(1-(trifluoromethyl)cyclopropyl)propanamide] | < 300 nM | – | < 300 nM | – |
| CN(C)[C@H](CNC(=O)C[C@H](c1cccnc1)C1(C(F)(F)F)CC1)Cc1ccc(C(N)=O)cc1Cl [Compound 28, 3-chloro-4-((S)-2-(dimethylamino)-3-((R)-3-(pyridin-3-yl)-3-(1-(trifluoromethyl)cyclopropyl)propanamido)propyl)benzamide] | < 300 nM | – | < 300 nM | – |
| CN(C)[C@H](CNC(=O)CC(c1cncc(F)c1)C1(C(F)(F)F)CC1)Cc1ccc(C(N)=O)cc1Cl (stereo partly drawn) [Compound 36, 3-chloro-4-[(2S)-2-(dimethylamino)-3-[3-(5-fluoropyridin-3-yl)-3-[1-(trifluoromethyl)cyclopropyl]propanamido]propyl]benzamide] | < 300 nM | – | – | < 300 nM |
| CN(C)[C@H](CNC(=O)C[C@H](c1ccc(Cl)c(Cl)c1)C1(C(F)(F)F)CC1)Cc1ccc(C(N)=O)cc1 [Compound 80, 4-((S)-3-((R)-3-(3,4-dichlorophenyl)-3-(1-(trifluoromethyl)cyclopropyl)propanamido)-2-(dimethylamino)propyl)benzamide] | < 300 nM | < 300 nM | < 300 nM | – |
| Cc1cc(C(N)=O)cc(C)c1C[C@@H](CNC(=O)C1CC1c1ncccn1)N(C)C (stereo partly drawn) [Compound 6, 4-((2S)-2-(dimethylamino)-3-(2-(pyrimidin-2-yl)cyclopropane-1-carboxamido)propyl)-3,5-dimethylbenzamide] | 300 to 3000 nM | – | – | 300 to 3000 nM |
| COc1ncc(C(CC(=O)NC[C@H](Cc2ccc(C(N)=O)cc2Cl)N(C)C)C2(C(F)(F)F)CC2)cn1 (stereo partly drawn) [Compound 33, 3-chloro-4-[(2S)-2-(dimethylamino)-3-[3-(2-methoxypyrimidin-5-yl)-3-[1-(trifluoromethyl)hydropropyl]propanamido]propyl]benzamide] | < 300 nM | – | < 300 nM | – |
| CN(C)[C@H](CNC(=O)C[C@@H](c1ccccn1)C1(C(F)(F)F)CC1)Cc1ccc(C(N)=O)cc1 [Compound 84, 4-[(2S)-2-(dimethylamino)-3-[(3R)-3-(pyridin-2-yl)-3-[1-(trifluoromethyl)cyclopropyl]propanamido]propyl]benzamide] | < 300 nM | – | < 300 nM | – |

Reference: US11634396B2 (priority 2021, dated 2023)
